From PMC12163085, “Targeting transcription factors through an IMiD independent zinc finger domain” (EMBO Molecular Medicine, 2025) come the findings set out here.

Assay [1] deals with SNU398. The assay can be described thus: cells. More on the design: species or system SNU387, SNU398 and SNU387 isogenic lines; CellTiter-Glo luminescence viability dose response in 384-well plates, nonlinear regression. The following applies: Homo sapiens, SNU-398; 72 h cell viability; read-out: EC50 / SNU398Hi. How it is done: (§1) Empty vector, SALL4A, and SALL4B expressing isogenic cell lines were generated by transducing the SALL4 negative hepatocellular carcinoma SNU-387 cells with empty vector, SALL4A, or SALL4B FUW-Luc-mCh-puro lentiviral constructs. Cells were plated in 50 μl of RPMI culture media in 384-well white flat-bottom plates (Corning) and incubated at 37 °C in a humidified atmosphere of 5% CO2 overnight. Cell numbers per well were 1500 for SNU-398, and 750 for SNU-387 and SNU-387 isogenic lines. After overnight incubation, varying concentrations of compounds 1–80 were added to cells with multichannel electronic pipettes (Rainin). Cells were then incubated for 72 h at 37 °C in a humidified atmosphere of 5% CO2 before 10 μl of CellTiter-Glo reagent was added to the wells with the MultiFlo Microplate Dispenser (BioTek). Cells were incubated at room temperature for a minimum of 10 min, after which luminescence readings were recorded by an Infinite M1000 Microplate Reader (Tecan). Each data point was performed in n = 3 independent cell cultures. IC50 of compounds were determined using nonlinear regression fitting from Prism (GraphPad). Cell-based screening was next employed to evaluate the growth inhibitory activity of the test compounds against SALL4 expressing malignant cells. SNU398, a liver cancer cell line with high endogenous levels of SALL4, and SNU387, a liver cancer cell line with undetectable levels of SALL4, were used for comparison. Cells were incubated with the test compound at 1 μM for 72 h, after which cell viability was assessed. […] Next, we carried out dose escalation studies on all SH compounds to deduce their EC50 values on SNU387 and SNU398. In order to interrogate the effects of compounds targeting SALL4, we created isogenic cells by overexpressing SALL4A (SNU387-TgSALL4A) or SALL4B (SNU387-TgSALL4B) in SNU387 cells (Tan et al, [2019]) (Fig. 2B, and Dataset EV4). The EC50 of SH2, SH6, and SH7 in SALL4 high SNU398 cells were 0.4 μM, 0.5 μM, and 0.3 μM, respectively. In contrast, the EC50 values of the same compounds were more than 10 μM on SALL4 low SNU387 cells.

Assay [2] concerns SNU387. The assay can be described thus: cells. More on the design: species or system SNU398 and SNU387 isogenic lines; CellTiter-Glo luminescence viability dose response in 384-well plates, nonlinear regression. The following applies: Homo sapiens, SNU-387; 72 h cell viability; read-out: EC50 / SNU387Lo. How it is done: as §1

Each structure is given as a SMILES string.

For `COc1cc(Nc2ncccc2/C=C/C(=O)Nc2cc(C)ccc2N)cc(OC)c1OC` [SH3], the values for the EC50 in assay [1] and in assay [2] were about 1.5 µM and over 30 µM, respectively.

Turning to `Nc1ccccc1NC(=O)c1cccnc1Nc1ccc(F)cc1` [SH57], the EC50 in assay [1] and in assay [2] was over 30 µM each time.

For the compound `Nc1ccc(F)cc1NC(=O)c1cccnc1Nc1ccc(C(F)(F)F)cc1` [SH69], the EC50 is about 16 µM in assay [1] and over 30 µM in assay [2].

For `O=C(/C=C/c1cccnc1Nc1ccc(Cl)cc1)NO` [SH40], the EC50 in assay [1] was about 15 µM; in assay [2], over 30 µM.

With `O=C(/C=C/c1cccnc1Nc1ccc(C(F)(F)F)cc1)NO` [SH32], the EC50 in assay [1] is about 8 µM; in assay [2] it was over 30 µM.

Take `Nc1ccc(F)cc1NC(=O)/C=C/c1cccnc1Nc1ccc(C(F)(F)F)cc1` [SH29]: the EC50 in assay [1] was about 12 µM; in assay [2] it was over 30 µM.

For the compound `Nc1cc(Cl)c(Cl)cc1NC(=O)/C=C/c1cccnc1Nc1ccc(Cl)cc1` [SH39], the EC50 in assay [1] is about 16 µM; in assay [2], about 25 µM.

In the case of `Cc1ccc(N)c(NC(=O)c2cccnc2Nc2ccc(C(F)(F)F)cc2)c1` [SH67], the EC50 in assay [1] and in assay [2] was over 30 µM each time.

`Cc1ccc(N)c(NC(=O)/C=C/c2cccnc2Nc2ccc(C(F)(F)F)cc2)c1` [SH27]: the EC50 in assay [1] is about 12 µM; in assay [2], over 30 µM.

Consider `Nc1ccc(Cl)cc1NC(=O)c1cccnc1Nc1ccc(Cl)cc1` [SH78], for which the EC50 in assay [1] was about 25 µM; in assay [2], over 30 µM.

On to `COc1cc(Nc2ncccc2/C=C/C(=O)Nc2ccccc2N)cc(OC)c1OC` [SH1], for which the EC50 in assay [1] is about 3 µM; in assay [2], about 30 µM.

Consider `COc1ccc(Nc2ncccc2C(=O)Nc2cc(OC)ccc2N)cc1` [SH50], for which the EC50 in assay [1] and in assay [2] was over 30 µM throughout.

Take `COc1ccc(Nc2ncccc2/C=C/C(=O)Nc2cc(OC)ccc2N)cc1` [SH10]: the EC50 was about 2.5 µM in assay [1] and over 30 µM in assay [2].

`COc1ccc(Nc2ncccc2/C=C/C(=O)Nc2ccccc2N)cc1` [SH9]: the EC50 in assay [1] was about 25 µM; in assay [2], over 30 µM.

With `Cc1ccc(N)c(NC(=O)c2cccnc2Nc2ccc(F)cc2)c1` [SH59], the EC50 in assay [1] and in assay [2] was over 30 µM throughout.

With `COc1ccc(Nc2ncccc2C(=O)Nc2cc(C)ccc2N)cc1` [SH51], the EC50 in assay [1] and in assay [2] was over 30 µM in each case.

In the case of `Cc1cc(N)c(NC(=O)c2cccnc2Nc2ccc(F)cc2)cc1C` [SH60], the EC50 in assay [1] and in assay [2] was over 30 µM in each case.

As for `Nc1ccc(F)cc1NC(=O)c1cccnc1Nc1ccc(Cl)cc1` [SH77], the EC50 in assay [1] is about 25 µM; in assay [2] it was over 30 µM.

In the case of `O=C(NO)c1cccnc1Nc1ccc(F)cc1` [SH64], the EC50 in assay [1] and in assay [2] was over 30 µM throughout.

`Cc1ccc(N)c(NC(=O)/C=C/c2cccnc2Nc2ccc(Cl)cc2)c1` [SH35]: the EC50 in assay [1] is about 9 µM; in assay [2], about 20 µM.

Regarding `COc1cc(Nc2ncccc2C(=O)Nc2cc(F)ccc2N)cc(OC)c1OC` [SH45], the EC50 in assay [1] and in assay [2] was over 30 µM throughout.

As for `Nc1cc(Cl)c(Cl)cc1NC(=O)/C=C/c1cccnc1Nc1ccc(C(F)(F)F)cc1` [SH31], the results for the EC50 in assay [1] and in assay [2] were about 10 µM and about 14 µM, respectively.

Consider `Nc1ccccc1NC(=O)/C=C/c1cccnc1Nc1ccc(Cl)cc1` [SH33], for which the EC50 in assay [1] is about 20 µM; in assay [2], over 30 µM.

Turning to `Nc1ccc(Cl)cc1NC(=O)/C=C/c1cccnc1Nc1ccc(F)cc1` [SH22], the EC50 in assay [1] was about 15 µM; in assay [2], about 30 µM.

Consider `O=C(NO)c1cccnc1Nc1ccc(Cl)cc1` [SH80], for which the EC50 in assay [1] and in assay [2] was over 30 µM in each case.

With `COc1ccc(Nc2ncccc2C(=O)Nc2cc(Cl)ccc2N)cc1` [SH54], the EC50 in assay [1] and in assay [2] was over 30 µM throughout.

For the compound `Nc1ccc(Cl)cc1NC(=O)c1cccnc1Nc1ccc(F)cc1` [SH62], the EC50 in assay [1] is about 25 µM; in assay [2], over 30 µM.

For the compound `Cc1cc(N)c(NC(=O)/C=C/c2cccnc2Nc2ccc(F)cc2)cc1C` [SH20], the EC50 in assay [1] was about 12 µM; in assay [2] it was over 30 µM.

`Nc1ccccc1NC(=O)/C=C/c1cccnc1Nc1ccc(F)cc1` [SH17]: the values for the EC50 in assay [1] and in assay [2] were about 30 µM and over 30 µM, respectively.

As to `COc1ccc(Nc2ncccc2C(=O)Nc2ccccc2N)cc1` [SH49], the EC50 in assay [1] and in assay [2] was over 30 µM throughout.

Regarding `COc1ccc(N)c(NC(=O)/C=C/c2cccnc2Nc2ccc(F)cc2)c1` [SH18], the figures for the EC50 in assay [1] and in assay [2] were about 2 µM and over 30 µM, respectively.

Regarding `COc1cc(Nc2ncccc2C(=O)Nc2cc(C)ccc2N)cc(OC)c1OC` [SH43], the EC50 is about 12 µM in assay [1] and about 30 µM in assay [2].

With `COc1ccc(N)c(NC(=O)/C=C/c2cccnc2Nc2ccc(C(F)(F)F)cc2)c1` [SH26], the EC50 was about 6 µM in assay [1] and about 12 µM in assay [2].

For `COc1ccc(Nc2ncccc2C(=O)Nc2cc(C)c(C)cc2N)cc1` [SH52], the EC50 in assay [1] and in assay [2] was over 30 µM in each case.

Consider `Cc1cc(N)c(NC(=O)/C=C/c2cccnc2Nc2ccc(C(F)(F)F)cc2)cc1C` [SH28], for which the EC50 was about 12 µM in assay [1] and about 25 µM in assay [2].

Take `Nc1ccc(Cl)cc1NC(=O)c1cccnc1Nc1ccc(C(F)(F)F)cc1` [SH70]: the EC50 in assay [1] is about 25 µM; in assay [2] it was over 30 µM.

Consider `Nc1ccc(F)cc1NC(=O)/C=C/c1cccnc1Nc1ccc(Cl)cc1` [SH37], for which the EC50 in assay [1] is about 17 µM; in assay [2], over 30 µM.

Regarding `Nc1ccccc1NC(=O)c1cccnc1Nc1ccc(Cl)cc1` [SH73], the EC50 in assay [1] was about 30 µM; in assay [2], over 30 µM.

On to `COc1ccc(N)c(NC(=O)c2cccnc2Nc2ccc(C(F)(F)F)cc2)c1` [SH66], for which the EC50 in assay [1] was about 25 µM; in assay [2] it was over 30 µM.

For `COc1ccc(N)c(NC(=O)/C=C/c2cccnc2Nc2ccc(Cl)cc2)c1` [SH34], the results for the EC50 in assay [1] and in assay [2] were about 3 µM and about 5 µM, respectively.

Consider `Nc1ccccc1NC(=O)/C=C/c1cccnc1Nc1ccc(C(F)(F)F)cc1` [SH25], for which the EC50 in assay [1] was 30 µM; in assay [2], over 30 µM.

Take `COc1ccc(Nc2ncccc2/C=C/C(=O)Nc2cc(C)ccc2N)cc1` [SH11]: the EC50 is about 3 µM in assay [1] and about 10 µM in assay [2].

Regarding `Nc1ccccc1NC(=O)c1cccnc1Nc1ccc(C(F)(F)F)cc1` [SH65], the results for the EC50 in assay [1] and in assay [2] were about 25 µM and over 30 µM, respectively.

As for `COc1cc(Nc2ncccc2/C=C/C(=O)NO)cc(OC)c1OC` [SH8], the EC50 in assay [1] and in assay [2] was over 30 µM in each case.

Turning to `Nc1ccc(Cl)cc1NC(=O)/C=C/c1cccnc1Nc1ccc(Cl)cc1` [SH38], the EC50 in assay [1] is about 15 µM; in assay [2] it was over 30 µM.

As to `COc1cc(Nc2ncccc2C(=O)NO)cc(OC)c1OC` [SH48], the EC50 in assay [1] and in assay [2] was over 30 µM throughout.

On to `COc1ccc(Nc2ncccc2/C=C/C(=O)Nc2cc(Cl)c(Cl)cc2N)cc1` [SH15], for which the values for the EC50 in assay [1] and in assay [2] were about 20 µM and over 30 µM, respectively.

Take `Nc1ccc(Cl)cc1NC(=O)/C=C/c1cccnc1Nc1ccc(C(F)(F)F)cc1` [SH30]: the EC50 was about 12 µM in assay [1] and about 30 µM in assay [2].

For `COc1cc(Nc2ncccc2C(=O)Nc2ccccc2N)cc(OC)c1OC` [SH41], the EC50 in assay [1] and in assay [2] was over 30 µM in each case.

As for `Nc1cc(Cl)c(Cl)cc1NC(=O)c1cccnc1Nc1ccc(F)cc1` [SH63], the EC50 in assay [1] was about 20 µM; in assay [2], over 30 µM.

With `COc1ccc(Nc2ncccc2/C=C/C(=O)Nc2cc(C)c(C)cc2N)cc1` [SH12], the EC50 was about 25 µM in assay [1] and over 30 µM in assay [2].

For `COc1ccc(Nc2ncccc2C(=O)Nc2cc(Cl)c(Cl)cc2N)cc1` [SH55], the EC50 in assay [1] was about 25 µM; in assay [2], over 30 µM.

As for `COc1cc(Nc2ncccc2C(=O)Nc2cc(C)c(C)cc2N)cc(OC)c1OC` [SH44], the EC50 in assay [1] and in assay [2] was over 30 µM each time.

As for `COc1cc(Nc2ncccc2/C=C/C(=O)Nc2cc(F)ccc2N)cc(OC)c1OC` [SH5], the EC50 is about 2.5 µM in assay [1] and over 30 µM in assay [2].

On to `Nc1cc(Cl)c(Cl)cc1NC(=O)c1cccnc1Nc1ccc(C(F)(F)F)cc1` [SH71], for which the EC50 in assay [1] was about 16 µM; in assay [2], about 25 µM.
